For orientation: EC50 means the concentration that produces a half-maximal response. A low value points to greater potency.

The structures appear in SMILES notation. Entries after “also recorded” stand apart in the source; their conditions may differ. Read-outs that look alike come from different tables or passages of the source.

From publication PMC4205289, “Triptolide inhibits human immunodeficiency virus type 1 replication by promoting proteasomal degradation of Tat protein” (Retrovirology, 2014) come the findings set out here.

What all share (format): cell-based
Data set [1] concerns TNF-α-induced HIV-1 LTR activation. Briefly: HIV-1 LTR-luciferase reporter assay, TNF-α-induced, TZM-bl cells. Particulars: TNF-α 10 ng/mL, 24 h. The method, then: The effect of the test compounds on HIV-1 LTR promoter activity was evaluated using the luciferase reporter systems in both TZM-bl and Jurkat cells. TZM-bl cells seeded in 96-well plates (2 × 10^4 cells/well) were treated with either 10 ng/mL TNF-α (Sigma-Aldrich) or co-transfected with pEF1-Tat and pRL-TK (for transfection efficiency normalization) using Lipofectamine 2000 (Invitrogen). The cells were then cultured in the presence of various concentrations of the test compounds. After 24 h (TNF-α stimulation) or 48 h (Tat transfection) of incubation, luciferase activity was determined from cell lysates using the StedyGlo reagent (for TNF-α treated cells) or a dual luciferase assay system (Promega, for transfected cells) as recommended by the manufacturer.
(In a reporter assay the amount or activity of a reporter protein is the signal.)

The test system of data set [2] is HIV-1 NL4-3. The data set is described as follows: PBMC antiviral assay, p24 ELISA. The note with it: for EC50: Human immunodeficiency virus 1, NL43, PBMC, 144 h, p24, day 6 post-infection; for selectivity ratio at 6 days: human, read-out: SI (selective index, CC50/EC50). The protocol: In the antiviral assay using PBMCs, determination of the anti-HIV-1 activity of a particular compound was based on the inhibition of HIV-1 capsid protein (p24) production. After isolation, PBMCs were stimulated with phytohemagglutinin (2 μg/ml, Sigma-Aldrich) and interleukin-2 (20 U/mL, Sigma-Aldrich) in RPMI 1640 complete medium for three days and were then maintained with interleukin-2 during viral infection. PBMCs were infected with HIV-1 NL4-3 (MOI = 0.01). After viral adsorption for 2 h, the cells were washed thoroughly with culture medium to remove unabsorbed viral particles. The infected cells (2 × 10^5 cells/well) were cultured in 96-well plates in the presence of or absence of the test compound. At two, four, six, and eight days post-infection, half of the culture supernatant was collected and replaced with fresh medium containing the test compounds. The level of viral replication was determined with an HIV-1 p24 antigen capture enzyme-linked immunosorbent assay (ELISA).
For orientation: In an ELISA, binding on a coated surface is turned into a signal by an enzyme label.

For the next data set, the system named is HIV-1 mRNA. The data set is described as follows: Reverse-transcription PCR of viral mRNA (Gag region) in infected Jurkat cells. Particulars: HIV-1 NL4-3 MOI 0.5, 12 h post-infection, 118-D-24 50 μM, flavopiridol 20 nM, triptolide 5 nM. The method, then: (§1) The effects of the test compounds on HIV-1 proviral DNA and mRNA synthesis were analyzed by PCR. Jurkat cells were grown in 24-well plates and infected with the HIV-1 NL4-3 strain at an MOI of 0.5, and then test compounds were added at the desired concentrations. After incubation for 12 h, genomic DNA and mRNA from the infected cells were isolated using a Genomic DNA Mini Preparation Kit (Beyotime, China) and TRIzol reagent (Invitrogen Life Technologies), respectively. Nested PCR was used for the amplification of integrated proviral DNA, as previously described. To determine viral mRNA expression levels, 1 μg of RNA was treated with RQ1 RNase-Free DNase (Promega) and reverse transcribed using M-MLV Reverse Transcriptase (Promega) and random primers (Promega). An aliquot of cDNA was used as template for amplification of the HIV-1 Gag region as described elsewhere. […]
(§2) All of the PCR products were visualized on a UV transilluminator in 2% agarose gels stained with ethidium bromide. In preliminary experiments, the exponential range of the PCR amplification curve was determined for all of the PCR products by varying the amount of input DNA and the number of PCR cycles. Based on these experiments, appropriate conditions were chosen to perform semi-quantitative PCRs.

Another data set relates to Tat-GFP fusion protein. Briefly: Western blot of Tat-GFP fusion proteins in HeLa cells. The note with it: 48 h. The method, then:
Figure 5 Triptolide specifically reduces steady-state level of Tat protein. (A) HeLa cells were transfected with pEF1-FLAG-Tat in the presence of increasing concentrations of triptolide. Cells were harvested 48 h post-transfection, and protein expression levels were determined by Western blotting. (B) HeLa cells were transfected either with pEF1-GFP (left) or pEF1-Tat-GFP (right) in the presence of increasing concentrations of triptolide. Cells were harvested 48 h post-transfection, and protein expression levels were determined by Western blotting.
Figure 7 N-terminal domains are required for triptolide to reduce Tat steady-state levels. (A) Schematic diagram of domains of HIV-1 Tat. (B) The effects of triptolide on steady-state levels of Tat mutants. […] Cells were harvested 48 h post-transfection, and protein expression levels were determined by Western blotting. […] Cells were harvested 48 h post-transfection, and protein expression levels were determined by Western blotting. […] At 48 h post transfection, the nucleus and cytoplasm were fractionated using NE-PER nuclear and cytoplasmic extraction reagent, and protein expression levels were determined by Western blotting. […] Cells were harvested 48 h post-transfection, and protein expression levels were determined by Western blotting. […]
(In general: In western blotting, separated proteins are transferred to a membrane and probed.)

For data set [3], the system named is HIV-1 NL4-3. Briefly: Time-of-addition experiment in TZM-bl cells. The note with it: triptolide at 5 nM, luciferase at 48 h. The method, then: TZM-bl cells seeded in 96-well plates (2 × 10^4 /well) were infected with HIV-1 NL4-3 (MOI = 1). The virus inoculum was removed after 1 h of infection. Test compounds were added at different time points after infection (0 h, 2 h, 4 h, 6 h, 8 h, and 10 h). Dextran sulfate was added at 10 μg/mL, zidovudine at 1 μM and triptolide at 5 nM. At 48 h post-infection, the virus replication level was determined by analyzing luciferase activity in the cells as described above.

The subject of another data set is HIV-1 proviral DNA. Briefly: Nested PCR of integrated proviral DNA in infected Jurkat cells. Particulars: HIV-1 NL4-3 MOI 0.5, 12 h post-infection, 118-D-24 50 μM, flavopiridol 20 nM, triptolide 5 nM. The protocol:
as §1, §2

Regarding `CC(C)[C@]12O[C@H]1[C@@H]1O[C@]13[C@]1(O[C@H]1C[C@H]1C4=C(CC[C@@]13C)C(=O)OC4)[C@@H]2O` [triptolide], the “effect on TNF-α-induced luciferase production” value in data set [1] is “slightly enhance TNF-α-induced luciferase production; also recorded: not active”. Also, the EC50 in the data set on HIV-1 NL4-3 [2] (HIV-1 NL4-3, PBMC donor A) was found to be 1.1 nM; in the data set on HIV-1 NL4-3 [2] (HIV-1 NL4-3, PBMC donor B) it was 0.9 nM; in the data set with HIV-1 NL4-3 [2] (HIV-1 NL4-3, PBMC donor C), 1.3 nM. Moreover, the selectivity ratio at 6 days came to 11.5 with HIV-1 NL4-3 [2] (HIV-1 NL4-3, PBMC donor A); 17 in the data set on HIV-1 NL4-3 [2] (HIV-1 NL4-3, PBMC donor B); 8.6 in the data set with HIV-1 NL4-3 [2] (HIV-1 NL4-3, PBMC donor C). Besides, the “effect on viral mRNA synthesis” value in the data set on HIV-1 mRNA is “repress viral mRNA synthesis”. The “activity on fusion protein of Tat basic domain with GFP (Tat49–57-GFP)” value with Tat-GFP fusion protein (pEF1-Tat49–57-GFP) is on record as “not sufficient to mediate the susceptibility to triptolide”. The “steady-state level of Tat-GFP” value with Tat-GFP fusion protein (pEF1-Tat-GFP) is given as “reduced the steady-state levels of Tat-GFP dose-dependently”. In addition, the “time post-infection to which addition could be postponed without losing activity” value in the data set with HIV-1 NL4-3 [3] is reported as “up to 10 h”. In addition, in the data set on HIV-1 proviral DNA, the “effect on proviral DNA formation (integration)” value was “no effect on virus integration”.
